Test results published in patent US20260092070A1, “INHIBITORS OF CANINE JANUS KINASE AND USES THEREOF” (ANIMOL DISCOVERY, INC., priority 2023, published 2026).
pIC50: −log10 of the molar value. Read-outs that look alike come from different tables or passages of the source.

Tests used:
[1] = molecular target: T1, JAK-1 (Homo sapiens, UniProt P23458); experiment: JAK enzymatic assay (Eurofins KinaseProfiler/IC50Profiler, radiometric), JAK-1; conditions: for JAK1/JAK2 selectivity: selectivity IC50 ratio for JAK1 versus JAK2, human enzymes
Target sequence in this assay (P23458 whole entry): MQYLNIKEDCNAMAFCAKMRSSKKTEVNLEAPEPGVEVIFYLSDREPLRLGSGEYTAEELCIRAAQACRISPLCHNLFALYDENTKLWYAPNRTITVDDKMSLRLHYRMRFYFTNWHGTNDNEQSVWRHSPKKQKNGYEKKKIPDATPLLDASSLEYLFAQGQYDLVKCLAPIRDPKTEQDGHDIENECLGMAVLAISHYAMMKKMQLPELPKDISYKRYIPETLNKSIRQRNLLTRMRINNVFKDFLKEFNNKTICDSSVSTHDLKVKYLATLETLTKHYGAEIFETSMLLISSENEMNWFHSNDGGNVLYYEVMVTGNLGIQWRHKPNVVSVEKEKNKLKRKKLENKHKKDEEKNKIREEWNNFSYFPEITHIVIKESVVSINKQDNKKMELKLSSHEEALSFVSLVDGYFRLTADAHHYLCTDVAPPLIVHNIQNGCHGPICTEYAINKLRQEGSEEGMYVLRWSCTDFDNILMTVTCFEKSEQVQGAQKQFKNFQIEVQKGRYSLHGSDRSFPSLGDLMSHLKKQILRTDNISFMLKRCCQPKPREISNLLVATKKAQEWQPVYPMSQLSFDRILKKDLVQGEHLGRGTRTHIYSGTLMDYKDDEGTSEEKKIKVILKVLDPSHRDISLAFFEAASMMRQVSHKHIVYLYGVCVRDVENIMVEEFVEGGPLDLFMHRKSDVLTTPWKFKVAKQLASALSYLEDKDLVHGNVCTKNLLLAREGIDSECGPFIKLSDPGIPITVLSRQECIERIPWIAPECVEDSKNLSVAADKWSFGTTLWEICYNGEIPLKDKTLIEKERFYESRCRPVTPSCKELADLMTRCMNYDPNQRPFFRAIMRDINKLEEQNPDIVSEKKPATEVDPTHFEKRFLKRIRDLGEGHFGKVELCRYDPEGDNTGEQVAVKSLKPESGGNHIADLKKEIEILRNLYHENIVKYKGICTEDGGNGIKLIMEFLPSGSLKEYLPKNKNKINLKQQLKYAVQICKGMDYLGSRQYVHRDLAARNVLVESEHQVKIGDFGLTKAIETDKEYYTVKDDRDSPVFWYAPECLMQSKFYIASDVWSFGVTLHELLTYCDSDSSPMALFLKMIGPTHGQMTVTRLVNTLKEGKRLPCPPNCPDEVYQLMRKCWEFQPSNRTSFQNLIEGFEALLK
Description: (§1) All enzyme assays were conducted according to Eurofins Discovery's KinaseProfiler™ and IC50Profiler™ services.
(SEQ ID NO.: 1) peptide substrate, 10 mM magnesium acetate and [gamma-33P]-ATP (specific activity and concentration as required). The reaction was initiated by the addition of the Mg/ATP mix. After incubation for 40 minutes at room temperature, the reaction was stopped by the addition of phosphoric acid to a concentration of 0.5%. An aliquot of the reaction was then spotted onto a filter and washed four times for 4 minutes in 0.425% phosphoric acid and once with methanol prior to drying and scintillation counting. A known inhibitor, Staurosporine, was used as a positive control for the assay.
Data was then imported into an internal application where each data point was expressed as % inhibition based on uninhibited and no enzyme controls. […] Inhibition values for the JAK enzymes (IC50 values) for each compound were stratified into four groups.

[2] = molecular target: T2, Human JAK-3 (Homo sapiens, UniProt P52333); experiment: JAK enzymatic assay (Eurofins KinaseProfiler/IC50Profiler, radiometric), JAK-3; type: biochemical; conditions: human JAK-3 enzyme, 9 concentrations; read-out: JAK3 affinity (IC50) category
T2 construct: purchased Eurofins Discovery (KinaseProfiler / IC50Profiler service)
T2 sequence (P52333 1-1124): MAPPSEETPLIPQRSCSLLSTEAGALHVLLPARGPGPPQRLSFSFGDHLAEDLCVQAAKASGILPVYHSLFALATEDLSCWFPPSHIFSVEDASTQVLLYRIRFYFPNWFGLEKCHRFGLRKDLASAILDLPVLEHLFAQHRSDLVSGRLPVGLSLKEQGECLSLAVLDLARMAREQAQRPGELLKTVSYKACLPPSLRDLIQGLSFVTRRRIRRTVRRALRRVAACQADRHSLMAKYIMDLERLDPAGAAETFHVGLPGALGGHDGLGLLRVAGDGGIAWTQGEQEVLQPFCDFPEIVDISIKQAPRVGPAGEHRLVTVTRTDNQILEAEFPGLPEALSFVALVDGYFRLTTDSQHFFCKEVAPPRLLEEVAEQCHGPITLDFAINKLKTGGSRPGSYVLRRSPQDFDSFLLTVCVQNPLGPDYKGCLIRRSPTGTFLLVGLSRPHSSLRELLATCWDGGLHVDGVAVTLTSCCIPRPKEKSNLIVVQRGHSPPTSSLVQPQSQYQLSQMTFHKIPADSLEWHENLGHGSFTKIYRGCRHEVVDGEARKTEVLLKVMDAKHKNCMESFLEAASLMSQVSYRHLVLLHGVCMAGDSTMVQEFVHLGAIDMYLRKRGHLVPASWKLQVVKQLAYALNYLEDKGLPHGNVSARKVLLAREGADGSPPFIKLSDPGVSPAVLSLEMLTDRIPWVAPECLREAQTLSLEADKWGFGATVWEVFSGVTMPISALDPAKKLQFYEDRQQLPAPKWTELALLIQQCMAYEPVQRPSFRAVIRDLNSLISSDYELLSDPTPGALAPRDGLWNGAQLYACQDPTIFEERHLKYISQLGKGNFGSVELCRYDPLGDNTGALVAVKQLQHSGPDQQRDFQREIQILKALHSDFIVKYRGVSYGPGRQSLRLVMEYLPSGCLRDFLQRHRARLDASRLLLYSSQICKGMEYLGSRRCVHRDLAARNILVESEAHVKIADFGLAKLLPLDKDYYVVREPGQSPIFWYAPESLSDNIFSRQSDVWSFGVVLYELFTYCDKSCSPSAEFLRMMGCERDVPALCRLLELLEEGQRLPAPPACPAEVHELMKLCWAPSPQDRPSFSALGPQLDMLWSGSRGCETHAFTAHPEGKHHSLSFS
Description: as §1
(SEQ ID NO: 3) peptide substrate, 10 mM magnesium acetate and [gamma-33P]-ATP (specific activity and concentration as required). The reaction was initiated by the addition of the Mg/ATP mix. After incubation for 40 minutes at room temperature, the reaction was stopped by the addition of phosphoric acid to a concentration of 0.5%. An aliquot of the reaction was then spotted onto a filter and washed four times for 4 minutes in 0.425% phosphoric acid and once with methanol prior to drying and scintillation counting.
(§2) Data was then imported into an internal application where each data point was expressed as % inhibition based on uninhibited and no enzyme controls.

[3] = molecular target: T3, Human TYK-2 (Homo sapiens, UniProt P29597); experiment: JAK enzymatic assay (Eurofins KinaseProfiler/IC50Profiler, radiometric), TYK-2; type: biochemical; conditions: human TYK-2 enzyme, 9 concentrations; read-out: TYK2 affinity (IC50) category
T3 construct: purchased Eurofins Discovery (KinaseProfiler / IC50Profiler service)
Description: Human TYK-2 (Uniprot ID: P29597) was incubated with 8 mM MOPS pH 7.0, 0.2 mM EDTA, 250 μM […]

[4] = molecular target: Human JAK-2 (Homo sapiens, UniProt O60674); experiment: JAK enzymatic assay (Eurofins KinaseProfiler/IC50Profiler, radiometric), JAK-2; type: biochemical; conditions: human JAK-2 enzyme, 9 concentrations; read-out: JAK2 affinity (IC50) category
Description: as §1
(SEQ ID NO: 2) peptide substrate, 10 mM magnesium acetate and [gamma-33P]-ATP (specific activity and concentration as required). The reaction was initiated by the addition of the Mg/ATP mix. After incubation for 40 minutes at room temperature, the reaction was stopped by the addition of phosphoric acid to a concentration of 0.5%. An aliquot of the reaction was then spotted onto a filter and washed four times for 4 minutes in 0.425% phosphoric acid and once with methanol prior to drying and scintillation counting.
as §2

[5] = molecular target: T1, JAK-1; conditions: Gonzales et al., 2014; cited from earlier work
Target sequence in this assay (P23458 whole entry, species assumed): as the sequence (P23458 whole entry) above

[6] = tested on: cJAK-1; experiment: Selectivity of oclacitinib among canine JAK subtypes; type: biochemical
[7] = tested on: JAK1-dependent cytokines (IL-2, IL-4, IL-6, IL-13, IL-31); conditions: IL-2, IL-4, IL-6, IL-13 and IL-31; Gonzales et al., 2014; read-out: IC50 for inhibiting the function of JAK1-dependent cytokines; cited from earlier work

Sequence of Human JAK-2 (O60674 whole entry): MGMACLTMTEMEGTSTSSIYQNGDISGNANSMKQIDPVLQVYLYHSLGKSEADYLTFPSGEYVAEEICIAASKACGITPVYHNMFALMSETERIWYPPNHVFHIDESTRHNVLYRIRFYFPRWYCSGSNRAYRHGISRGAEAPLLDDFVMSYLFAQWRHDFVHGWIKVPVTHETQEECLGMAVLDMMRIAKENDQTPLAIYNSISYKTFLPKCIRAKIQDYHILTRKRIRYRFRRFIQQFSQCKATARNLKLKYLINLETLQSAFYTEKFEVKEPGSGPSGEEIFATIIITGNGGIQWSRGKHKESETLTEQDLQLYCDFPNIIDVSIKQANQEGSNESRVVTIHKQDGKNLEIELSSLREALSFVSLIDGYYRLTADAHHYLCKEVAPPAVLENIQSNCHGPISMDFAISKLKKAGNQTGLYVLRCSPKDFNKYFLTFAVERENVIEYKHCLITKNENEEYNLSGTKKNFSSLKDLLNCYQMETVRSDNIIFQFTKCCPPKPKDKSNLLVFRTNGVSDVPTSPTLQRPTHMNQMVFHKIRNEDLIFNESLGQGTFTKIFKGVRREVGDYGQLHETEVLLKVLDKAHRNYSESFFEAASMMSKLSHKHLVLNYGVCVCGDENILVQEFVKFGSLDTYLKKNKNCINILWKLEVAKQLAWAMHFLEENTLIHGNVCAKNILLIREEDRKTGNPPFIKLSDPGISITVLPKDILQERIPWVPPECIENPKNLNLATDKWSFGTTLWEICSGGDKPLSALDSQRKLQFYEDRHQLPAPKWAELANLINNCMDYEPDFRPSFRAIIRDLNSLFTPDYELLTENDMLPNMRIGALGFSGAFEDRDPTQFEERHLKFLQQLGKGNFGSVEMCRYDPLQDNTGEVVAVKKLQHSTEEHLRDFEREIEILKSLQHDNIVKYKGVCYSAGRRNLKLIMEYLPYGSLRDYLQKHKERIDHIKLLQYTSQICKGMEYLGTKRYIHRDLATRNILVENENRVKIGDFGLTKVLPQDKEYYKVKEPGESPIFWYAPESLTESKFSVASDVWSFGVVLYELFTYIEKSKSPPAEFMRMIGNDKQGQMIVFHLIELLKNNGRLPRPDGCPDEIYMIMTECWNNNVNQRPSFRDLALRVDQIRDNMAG
T3 sequence (P29597 whole entry): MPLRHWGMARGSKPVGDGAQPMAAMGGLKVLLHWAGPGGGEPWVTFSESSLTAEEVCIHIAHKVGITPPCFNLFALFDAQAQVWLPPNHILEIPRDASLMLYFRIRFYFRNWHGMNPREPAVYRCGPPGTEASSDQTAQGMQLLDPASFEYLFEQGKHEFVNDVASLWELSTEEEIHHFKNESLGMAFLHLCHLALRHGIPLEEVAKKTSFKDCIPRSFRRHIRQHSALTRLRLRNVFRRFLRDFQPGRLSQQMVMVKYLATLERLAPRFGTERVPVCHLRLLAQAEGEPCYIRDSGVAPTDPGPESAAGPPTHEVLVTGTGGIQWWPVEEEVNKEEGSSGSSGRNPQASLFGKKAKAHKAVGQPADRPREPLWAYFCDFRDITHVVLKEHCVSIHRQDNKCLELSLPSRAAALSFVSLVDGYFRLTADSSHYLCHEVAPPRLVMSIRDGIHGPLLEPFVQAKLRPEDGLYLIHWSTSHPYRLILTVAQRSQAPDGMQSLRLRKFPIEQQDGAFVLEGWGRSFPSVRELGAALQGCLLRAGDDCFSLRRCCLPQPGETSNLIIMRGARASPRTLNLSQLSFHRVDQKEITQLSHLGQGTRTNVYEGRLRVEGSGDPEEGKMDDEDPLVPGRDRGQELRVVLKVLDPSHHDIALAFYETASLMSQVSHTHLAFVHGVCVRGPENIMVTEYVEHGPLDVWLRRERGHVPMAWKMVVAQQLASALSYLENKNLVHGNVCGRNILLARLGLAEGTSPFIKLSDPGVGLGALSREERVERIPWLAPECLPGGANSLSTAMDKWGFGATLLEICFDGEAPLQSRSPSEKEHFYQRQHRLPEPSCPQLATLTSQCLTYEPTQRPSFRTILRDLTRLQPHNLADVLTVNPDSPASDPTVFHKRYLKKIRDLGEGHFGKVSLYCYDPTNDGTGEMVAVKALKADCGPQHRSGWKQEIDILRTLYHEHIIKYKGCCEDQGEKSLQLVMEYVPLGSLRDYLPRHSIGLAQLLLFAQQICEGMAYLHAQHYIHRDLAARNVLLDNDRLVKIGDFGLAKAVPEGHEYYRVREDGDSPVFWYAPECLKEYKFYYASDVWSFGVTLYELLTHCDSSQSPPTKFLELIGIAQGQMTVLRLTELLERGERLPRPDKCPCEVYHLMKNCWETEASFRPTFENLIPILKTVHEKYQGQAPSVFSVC

Compound	pIC50 [1]	pIC50 [2]	pIC50 [3]	pIC50 [4]	JAK1/JAK2 selectivity [1]	pIC50 [5]	selectivity toward cJAK-2, cJAK-3, and cJAK-4 relative to cJAK-1 [6]	pIC50 [7]
COc1cc(NC(=O)CN2CCN(c3ncnc4[nH]ccc34)CC2)ccc1S(=O)(=O)N(C)C [Compound 1, 2-(4-(7H-pyrrolo[2,3-d]pyrimidin-4-yl)piperazin-1-yl)-N-(4-(N, N-dimethylsulfamoyl)-3-methoxyphenyl) acetamide]	6.00 to 6.30	< 6.00	< 6.00	< 6.00				
CC(C)(C)NS(=O)(=O)c1ccc(NC(=O)CN2CCN(c3ncnc4[nH]ccc34)CC2)cc1 [Compound 2, 2-(4-(7H-pyrrolo[2,3-d]pyrimidin-4-yl)piperazin-1-yl)-N-(4-(N-(tert-butyl)sulfamoyl)phenyl)acetamide]	> 6.60	< 6.00	< 6.00	< 6.00	25			
O=C(CN1CCN(c2ncnc3[nH]ccc23)CC1)Nc1ccc(S(=O)(=O)N2CCC2)cc1 [Compound 4, 2-(4-(7H-pyrrolo[2,3-d]pyrimidin-4-yl)piperazin-1-yl)-N-(4-(azetidin-1-ylsulfonyl)phenyl) acetamide]	6.30 to 6.60	< 6.00	< 6.00	< 6.00	24			
CN(C)S(=O)(=O)c1ccc(NC(=O)CN2CCN(c3ncnc4[nH]ccc34)CC2)cc1F [Compound 5, 2-(4-(7H-pyrrolo[2,3-d]pyrimidin-4-yl)piperazin-1-yl)-N-(4-(N,N-dimethylsulfamoyl)-3-fluorophenyl)acetamide]	6.30 to 6.60	< 6.00	< 6.00	< 6.00				
CN(C)S(=O)(=O)c1ccc(NC(=O)CN2CCN(c3ncnc4[nH]ccc34)CC2)cc1Cl [Compound 6, 2-(4-(7H-pyrrolo[2,3-d]pyrimidin-4-yl)piperazin-1-yl)-N-(3-chloro-4-(N,N-dimethylsulfamoyl)phenyl)acetamide]		< 6.00	< 6.00	< 6.00				
O=C(CN1CCN(c2ncnc3[nH]ccc23)CC1)Nc1ccc(S(=O)(=O)NC2CC2)cc1 [Compound 7, 2-(4-(7H-pyrrolo[2,3-d]pyrimidin-4-yl)piperazin-1-yl)-N-(4-(N-cyclopropylsulfamoyl)phenyl)acetamide]	> 6.60	< 6.00	< 6.00	6.00 to 6.30	13			
CNS(=O)(=O)c1ccc(NC(=O)CN2CCN(c3ncnc4[nH]ccc34)CC2)cc1 [Compound 8, 2-(4-(7H-pyrrolo[2,3-d]pyrimidin-4-yl)piperazin-1-yl)-N-(4-(N-methylsulfamoyl)phenyl)acetamide]	> 6.60	6.00 to 6.30	< 6.00	6.00 to 6.30	7			
CNS(=O)(=O)c1ccc(NC(=O)CN2CCN(c3ncnc4[nH]ccc34)CC2)cc1F [Compound 9, 2-(4-(7H-pyrrolo[2,3-d]pyrimidin-4-yl)piperazin-1-yl)-N-(3-fluoro-4-(N-methylsulfamoyl)phenyl)acetamide]	> 6.60	6.00 to 6.30	6.00 to 6.30	6.00 to 6.30	12			
COCCN(C)S(=O)(=O)c1ccc(NC(=O)CN2CCN(c3ncnc4[nH]ccc34)CC2)cc1 [Compound 10, 2-(4-(7H-pyrrolo[2,3-d]pyrimidin-4-yl)piperazin-1-yl)-N-(4-(N-(2-methoxyethyl)-N-methylsulfamoyl)phenyl)acetamide]	6.30 to 6.60	< 6.00	< 6.00	< 6.00	15			
CCCCNS(=O)(=O)c1ccc(NC(=O)CN2CCN(c3ncnc4[nH]ccc34)CC2)cc1 [Compound 11, 2-(4-(7H-pyrrolo[2,3-d]pyrimidin-4-yl)piperazin-1-yl)-N-(4-(N-butylsulfamoyl)phenyl)acetamide]	> 6.60	6.00 to 6.30	< 6.00	< 6.00	9			
CCCNS(=O)(=O)c1ccc(NC(=O)CN2CCN(c3ncnc4[nH]ccc34)CC2)cc1 [Compound 12, 2-(4-(7H-pyrrolo[2,3-d]pyrimidin-4-yl)piperazin-1-yl)-N-(4-(N-propylsulfamoyl)phenyl)acetamide]	> 6.60	6.00 to 6.30	< 6.00	6.00 to 6.30	4			
CCNS(=O)(=O)c1ccc(NC(=O)CN2CCN(c3ncnc4[nH]ccc34)CC2)cc1 [Compound 13, 2-(4-(7H-pyrrolo[2,3-d]pyrimidin-4-yl)piperazin-1-yl)-N-(4-(N-ethylsulfamoyl)phenyl)acetamide]	> 6.60	< 6.00	< 6.00	< 6.00	13			
CNS(=O)(=O)c1ccc(N(C)C(=O)CN2CCN(c3ncnc4[nH]ccc34)CC2)cc1 [Compound 14, 2-(4-(7H-pyrrolo[2,3-d]pyrimidin-4-yl)piperazin-1-yl)-N-methyl-N-(4-(N-methylsulfamoyl)phenyl)acetamide]	6.30 to 6.60	< 6.00	< 6.00	< 6.00	17			
CC(C)NS(=O)(=O)c1ccc(NC(=O)C(C)N2CCN(c3ncnc4[nH]ccc34)CC2)cc1 (centres unmarked) [Compound 17, 2-(4-(7H-pyrrolo[2,3-d]pyrimidin-4-yl)piperazin-1-yl)-N-(4-(N-isopropylsulfamoyl)phenyl)propenamide]	6.30 to 6.60	< 6.00	< 6.00	< 6.00	7			
CC(C)NS(=O)(=O)c1ccc(NC(=O)[C@@H](C)N2CCN(c3ncnc4[nH]ccc34)CC2)cc1 [Compound 18, (R)-2-(4-(7H-pyrrolo[2,3-d]pyrimidin-4-yl)piperazin-1-yl)-N-(4-(N-isopropylsulfamoyl)phenyl)propanamide]	6.30 to 6.60	6.00 to 6.30	< 6.00	> 6.60	4			
CC(C)NS(=O)(=O)c1ccc(NC(=O)[C@H](C)N2CCN(c3ncnc4[nH]ccc34)CC2)cc1 [Compound 19, (S)-2-(4-(7H-pyrrolo[2,3-d]pyrimidin-4-yl)piperazin-1-yl)-N-(4-(N-isopropylsulfamoyl)phenyl)propenamide]	> 6.60	< 6.00		< 6.00	8			
CC(C(=O)Nc1ccc(S(=O)(=O)N2CCCCC2)cc1)N1CCN(c2ncnc3[nH]ccc23)CC1 (centres unmarked) [Compound 20, 2-(4-(7H-pyrrolo[2,3-d]pyrimidin-4-yl)piperazin-1-yl)-N-(4-(piperidin-1-ylsulfonyl)phenyl)propenamide]	6.00 to 6.30	< 6.00	6.00 to 6.30	< 6.00	2			
CNS(=O)(=O)C[C@H]1CC[C@H](N(C)c2ncnc3[nH]ccc23)CC1.O=C(O)/C=C\C(=O)O [Oclacitinib, N-methyl[trans-4-(methyl-7H-pyrrolo[2,3-d]pyrimidin-4-ylamino)cyclohexyl]methanesulfonamide (2Z)-2-butenedioate]						8.00	relatively low	6.60 to 7.44
